Measurements published in PubChem BioAssay (NCI).
“And” between values parts separate entries of the source, which are not always exact repeats. Equal values may be shown once.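 Method: 48-hour compound exposure of cells in 96-well plates, five concentrations, linear interpolation of endpoints. The concentration for 50% growth inhibition is given as GI50. TGI marks complete inhibition of growth.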 Where a SMILES comes first, the peptide text is derived from it. The star is where a group is joined. Boc = CC(C)(C)OC(=O)*

Key:
Assay in all cases: NCI tumour cell line growth inhibition, 48 h
A549 NSCLC = test system: A549 NSCLC
SK-MEL-28 melanoma = test system: SK-MEL-28 melanoma
NCI-H23 lung = test system: NCI-H23 lung
TK-10 renal = test system: TK-10 renal
SNB-19 CNS = test system: SNB-19 CNS
MDA-MB-435 = test system: MDA-MB-435
MOLT-4 leukemia = test system: MOLT-4 leukemia
COLO 205 colon = test system: COLO 205 colon
K-562 leukemia = test system: K-562 leukemia
NCI-H226 lung = test system: NCI-H226 lung

## Clc1nc(Cl)nc(Nc2cccc3ccccc23)n1
A549 NSCLC
  GI50: > 100 µM
  TGI: > 100 µM
SK-MEL-28 melanoma
  GI50: > 100 µM
  TGI: > 100 µM
NCI-H23 lung
  GI50: > 100 µM
  TGI: > 100 µM
TK-10 renal
  GI50: > 100 µM
  TGI: > 100 µM
SNB-19 CNS
  GI50: > 100 µM
  TGI: > 100 µM
MDA-MB-435
  GI50: 43.6 µM
  TGI: > 100 µM
MOLT-4 leukemia
  GI50: 40.3 µM
  TGI: > 100 µM
COLO 205 colon
  GI50: > 100 µM
  TGI: > 100 µM
K-562 leukemia
  GI50: 40.8 µM
  TGI: > 100 µM
NCI-H226 lung
  GI50: > 100 µM
  TGI: > 100 µM

## BrCc1cccc(C[P+](c2ccccc2)(c2ccccc2)c2ccccc2)c1
A549 NSCLC
  GI50: 42.3 µM
  TGI: > 100 µM
SK-MEL-28 melanoma
  GI50: 21.7 µM
  TGI: > 100 µM
NCI-H23 lung
  GI50: 36.2 µM
  TGI: > 100 µM
TK-10 renal
  GI50: 12.5 µM
  TGI: > 100 µM
SNB-19 CNS
  GI50: 12.1 µM
  TGI: > 100 µM
MDA-MB-435
  GI50: 8.38 µM
  TGI: > 100 µM
MOLT-4 leukemia
  GI50: 65 µM
  TGI: > 100 µM
COLO 205 colon
  GI50: 4.57 µM
  TGI: 18.9 µM
K-562 leukemia
  GI50: 4.26 µM
  TGI: > 100 µM
NCI-H226 lung
  GI50: 45 µM
  TGI: > 100 µM

## CC1CCN(C(=O)OCc2nc3nc(Cl)nc(N4CCOCC4)c3[nH]2)CC1
A549 NSCLC
  GI50: 1.94 µM
  TGI: 4.81 µM
SK-MEL-28 melanoma
  GI50: 1.56 µM
  TGI: 2.94 µM
NCI-H23 lung
  GI50: 1.58 µM
  TGI: 3.65 µM
TK-10 renal
  GI50: 1.82 µM
  TGI: 3.44 µM
SNB-19 CNS
  GI50: 1.55 µM
  TGI: 2.9 µM
MDA-MB-435
  GI50: 0.835 µM
  TGI: 2.24 µM
MOLT-4 leukemia
  GI50: 0.704 µM
  TGI: 4.04 µM
COLO 205 colon
  GI50: 1.75 µM
  TGI: 4.99 µM
K-562 leukemia
  GI50: 0.434 µM
  TGI: 13.6 µM
NCI-H226 lung
  GI50: 1.62 µM
  TGI: 4.23 µM

## COC(=O)C(C)NC(=O)C(CCSC)NC(=O)C(Cc1ccccc1)NC(=O)OC(C)(C)C (stereo not drawn) (Boc-Phe-Met-Ala-OMe; configuration not given here)
A549 NSCLC
  GI50: 35.7 µg/mL
  TGI: > 100 µM
SK-MEL-28 melanoma
  GI50: 38.9 µg/mL
  TGI: > 100 µM
NCI-H23 lung
  GI50: 41.9 µg/mL
  TGI: > 100 µM
TK-10 renal
  GI50: 4.41 µg/mL
SNB-19 CNS
  TGI: > 100 µM
MDA-MB-435
  GI50: 39.2 µg/mL
  TGI: > 100 µM
MOLT-4 leukemia
  GI50: 18.6 µg/mL
  TGI: 40.2 µg/mL and > 100 µM
COLO 205 colon
  GI50: 24.2 µg/mL
  TGI: 47.4 µg/mL and > 100 µM
K-562 leukemia
  GI50: 32.7 µg/mL
  TGI: 91.2 µg/mL
NCI-H226 lung
  TGI: > 100 µM

## COc1ccc(C2=C(c3ccc(OC)cc3)C(=O)N3CCCC3C2)cc1 (centres undefined)
A549 NSCLC
  GI50: 9.42 µM
  TGI: > 100 µM
SK-MEL-28 melanoma
  GI50: 54.6 µM
  TGI: > 100 µM
NCI-H23 lung
  GI50: 41.9 µM
  TGI: > 100 µM
TK-10 renal
  GI50: 22.8 µM
  TGI: > 100 µM
SNB-19 CNS
  GI50: 45.6 µM
  TGI: > 100 µM
MDA-MB-435
  GI50: 12.3 µM
  TGI: > 100 µM
MOLT-4 leukemia
  GI50: 15.5 µM
  TGI: > 100 µM
COLO 205 colon
  GI50: 7.43 µM
  TGI: > 100 µM
K-562 leukemia
  TGI: > 100 µM
NCI-H226 lung
  GI50: 37.1 µM
  TGI: > 100 µM

## O=C1c2cccc3cccc(c23)C(=O)N1CCCCCN1CCN(CCCCCOc2ccc(-c3nc4ccc(N5CCOCC5)cc4[nH]3)cc2)CC1
A549 NSCLC
  GI50: 2.22 µM
  TGI: 5.26 µM
SK-MEL-28 melanoma
  GI50: 13 µM
  TGI: 25.7 µM
NCI-H23 lung
  GI50: 21.2 µM
  TGI: 46.6 µM
TK-10 renal
  GI50: 8.24 µM
  TGI: 14.8 µM
SNB-19 CNS
  GI50: > 46.1 µM
  TGI: > 60 µM
MDA-MB-435
  GI50: 3.59 µM
  TGI: 13.2 µM
MOLT-4 leukemia
  GI50: 0.264 µM
  TGI: 2.29 µM
COLO 205 colon
  GI50: 13.1 µM
  TGI: 28.7 µM
K-562 leukemia
  GI50: 0.135 µM
NCI-H226 lung
  GI50: 7.24 µM
  TGI: 30.2 µM

## CCc1c(Cl)c(C)cc(O)c1Cl
A549 NSCLC
  TGI: > 100 µM
SK-MEL-28 melanoma
  TGI: > 100 µM
NCI-H23 lung
  TGI: > 100 µM
TK-10 renal
  TGI: > 100 µM
SNB-19 CNS
  TGI: > 100 µM
MDA-MB-435
  TGI: > 100 µM
MOLT-4 leukemia
  TGI: 95.2 µM
COLO 205 colon
  TGI: > 100 µM
K-562 leukemia
  TGI: > 100 µM
NCI-H226 lung
  TGI: 63.2 µM

## COC(=O)c1ccc(-c2c(C#N)[n+](=O)c3cc(Cl)c(Cl)cc3n2[O-])cc1
A549 NSCLC
  GI50: 47.4 µM
  TGI: > 100 µM
SK-MEL-28 melanoma
  GI50: 17.2 µM
  TGI: 34.8 µM
NCI-H23 lung
  GI50: 11.7 µM
  TGI: 29.3 µM
TK-10 renal
  GI50: 33.6 µM
  TGI: 95.1 µM
SNB-19 CNS
  GI50: 18.2 µM
  TGI: 38.9 µM
MDA-MB-435
  GI50: 17.9 µM
  TGI: 37 µM
MOLT-4 leukemia
  GI50: 1.18 µM
  TGI: 2.96 µM
COLO 205 colon
  GI50: 22 µM
  TGI: 52.1 µM
K-562 leukemia
  GI50: 5.54 µM
  TGI: 21.8 µM
NCI-H226 lung
  GI50: 25.7 µM
  TGI: 70.6 µM

## CCOC(=O)/C=C/c1ccc(C#Cc2ccccc2)cc1
A549 NSCLC
  GI50: 72.2 µM
  TGI: > 100 µM
SK-MEL-28 melanoma
  GI50: > 100 µM
  TGI: > 100 µM
NCI-H23 lung
  GI50: 95 µM
  TGI: > 100 µM
TK-10 renal
  GI50: > 100 µM
  TGI: > 100 µM
SNB-19 CNS
  GI50: > 100 µM
  TGI: > 100 µM
MDA-MB-435
  GI50: > 100 µM
  TGI: > 100 µM
MOLT-4 leukemia
  GI50: > 100 µM
  TGI: > 100 µM
COLO 205 colon
  GI50: > 100 µM
  TGI: > 100 µM
K-562 leukemia
  GI50: 72 µM
  TGI: > 100 µM
NCI-H226 lung
  GI50: > 100 µM
  TGI: > 100 µM

## COc1ccc2c(c1)c[n+](C)c1c3cc(OC)c(OC)cc3ccc21
A549 NSCLC
  TGI: 10.3 µM
SK-MEL-28 melanoma
  GI50: 1.7 µM and 13 µM
  TGI: 3.45 µM and 27.3 µM
NCI-H23 lung
  GI50: 1.48 µM and 3.35 µM
  TGI: 3.08 µM and 11.8 µM
TK-10 renal
  GI50: 2.13 µM and 11.2 µM
  TGI: 5.37 µM and 24 µM
SNB-19 CNS
  TGI: 8.1 µM and 13.8 µM
MDA-MB-435
  GI50: 1.51 µM and 5.1 µM
  TGI: 2.98 µM and 20 µM
MOLT-4 leukemia
  GI50: 0.358 µM and 1.7 µM
  TGI: 3.81 µM and 17.9 µM
COLO 205 colon
  TGI: 3.5 µM and 2.99 µM
K-562 leukemia
  TGI: 43.1 µM
NCI-H226 lung
  GI50: 4.22 µM and 12.1 µM
  TGI: 14.8 µM and 25.9 µM

## COc1cc2c3c(c1OC)-c1cc4c(cc1CC3(C#N)N(C(=O)c1ccccc1)CC2)OCO4 (centres undefined)
A549 NSCLC
  TGI: > 100 µM
SK-MEL-28 melanoma
  TGI: > 100 µM
NCI-H23 lung
  TGI: 54.1 µM
TK-10 renal
  TGI: 71 µM
SNB-19 CNS
  TGI: 46 µM
MDA-MB-435
  TGI: > 100 µM
MOLT-4 leukemia
  TGI: > 100 µM
COLO 205 colon
  TGI: > 100 µM
K-562 leukemia
  TGI: > 100 µM
NCI-H226 lung
  TGI: 78.2 µM

## Cn1c(=O)c(Oc2ccc(F)cc2)cc2cnc(NC3CCOCC3)nc21
A549 NSCLC
  GI50: > 25 µM
  TGI: > 25 µM
SK-MEL-28 melanoma
  GI50: > 25 µM
  TGI: > 25 µM
NCI-H23 lung
  GI50: > 25 µM
  TGI: > 25 µM
TK-10 renal
  GI50: > 25 µM
  TGI: > 25 µM
SNB-19 CNS
  GI50: > 25 µM
  TGI: > 25 µM
MDA-MB-435
  GI50: > 25 µM
  TGI: > 25 µM
MOLT-4 leukemia
  GI50: > 25 µM
  TGI: > 25 µM
COLO 205 colon
  GI50: > 25 µM
  TGI: > 25 µM
K-562 leukemia
  GI50: > 25 µM
  TGI: > 25 µM
NCI-H226 lung
  GI50: > 17.1 µM
  TGI: > 25 µM

## O=C(Nc1cc(C(F)(F)F)ccc1Cl)c1cccc(NC2=C(Cl)C(=O)N(Cc3ccccc3)C2=O)c1
A549 NSCLC
  GI50: 72.8 µM
  TGI: > 100 µM
SK-MEL-28 melanoma
  GI50: > 100 µM
  TGI: > 100 µM
TK-10 renal
  GI50: 34.2 µM
  TGI: > 100 µM
SNB-19 CNS
  GI50: > 100 µM
  TGI: > 100 µM
MDA-MB-435
  GI50: 15.7 µM
  TGI: > 100 µM
MOLT-4 leukemia
  GI50: 2.19 µM
  TGI: > 100 µM
COLO 205 colon
  GI50: 41.5 µM
  TGI: > 100 µM
K-562 leukemia
  GI50: 4.23 µM
  TGI: > 100 µM
NCI-H226 lung
  GI50: 17.6 µM
  TGI: > 100 µM
